What was measured:
[1] = molecular target: T1, HIS-KRAS (G12C, aa 2-185) (Homo sapiens, UniProt P01116, G12C); experiment: KRas G12C binding assay (TR-FRET, SOS1-mediated BODIPY FL GTP nucleotide exchange); conditions: GDP-loaded HIS-KRAS (G12C) 3 nM, 1 hour pre-incubation with compound, 4 hours with SOS1 ExD and BODIPY FL GTP at 25° C
T1 construct: HIS-KRAS (G12C, aa 2-185, Sino biological); purchased Sino biological
Protocol: Biological Example 1: KRas G12C Binding Assay
(§1) HIS-KRAS (G12C, aa 2-185, Sino biological) was diluted to 5 uM in EDTA buffer (20 mM HEPES, pH 7.4, 50 mM NaCl, 10 mM EDTA, 0.01% (v/v) Tween-20) and incubated for 30 min at 25° C. The EDTA pretreated HIS-KRAS (G12C) was diluted to 12 nM in assay buffer (25 mM HEPES, pH 7.4, 120 mM NaCl, 5 mM MgCl 2, 1 mM DTT, 0.01% (v/v) Tween 20, 0.1% (w/v) BSA) containing 120 nM GDP (Sigma) and MAb Anti 6HIS—Tb cryptate Gold (Cisbio) and incubated for 1 hour at 25° C. to prepare GDP-loaded HIS-KRAS (G12C). The GDP-loaded HIS-KRAS (G12C) was pre-incubation with diluted compounds in a 384-well plate (Greiner) for 1 hour, then purified SOS1 ExD (Flag tag, aa 564-1049) and BODIPY™ FL GTP (Invitrogen) were added to the assay wells (Final concentration: 3 nM HIS-KRAS (G12C), 2 uM SOS1 ExD, 80 nM BODIPY™ FL GTP, 21 ng/mL MAb Anti 6HIS—Tb cryptate Gold) and incubated for 4 hours at 25° C. TR-FRET signals were then read on Tecan Spark multimode microplate reader. The parameters were F486: Excitation 340 (35) nm, Emission 486 (10) nm, Lag time 100 μs, Integration time 200 μs; F515: Excitation 340 (35) nm, Emission 515 (10) nm, Lag time 100 μs, Integration time 200 μs. TR-FRET ratios for each individual wells were calculated by equation: TR-FRET ratio=(Signal F515/Signal F486)*10000. Then the data were analyzed using a 4-parameter logistic model to calculate IC50 values. The following table lists the IC50 values of certain compounds of the invention.

HIS-KRAS (G12V) = HIS-KRAS (G12V) (Homo sapiens, UniProt P01116, G12V); experiment: KRas G12V binding assay (TR-FRET, SOS1-mediated BODIPY FL GTP nucleotide exchange); conditions: GDP-loaded HIS-KRAS (G12V) 3 nM, 1 hour pre-incubation with compound, 4 hours with SOS1 ExD and BODIPY FL GTP at 25° C
Protocol: Biological Example 3: KRas G12V Binding Assay
as §1, with “(G12V)” for “(G12C, aa 2-185, Sino biological)”, “(G12V)” for “(G12C)”, “(G12V).” for “(G12C).”, “(G12V),” for “(G12C),”

[2] = molecular target: T2, GDP-loaded, histidine-tagged, truncated (1-169) KRAS G12C (Homo sapiens, UniProt P01116, G12C); experiment: KRas G12C in vitro covalent MS-based assay; type: binding; conditions: KRAS protein 2 uM, denaturing SEC-MS intact mass
T2 construct: histidine-tagged, truncated (1-169) KRAS proteins; His
Protocol: Biological Example 2: KRas G12C In Vitro Covalent MS-Based Assay
GDP-loaded, histidine-tagged, truncated (1-169) KRAS proteins (G12C, WT, G13D, as indicated) at 2 uM final concentration were incubated with the test compounds at the doses and time points indicated in a buffer containing 20 mmol/L HEPES pH 7.5, 150 mmol/L NaCl, 1 mmol/L MgCl 2, and 1 mmol/L DTT. Reactions were quenched by adding formic acid to 0.2%. Samples were buffer exchanged and analyzed by denaturing SEC-MS (Orbitrap Eclipse), Mobile phase: 30% ACN, 0.1% formic acid, 0.02% TFA. Raw data were analyzed by charge state deconvolution with BioPharma Finder 4.1 Intact Mass, ReSpect and Sliding Window algorithms. The masses were calculated via software for KRAS_G12C theoretical sequence and experimental compounds.

T1 sequence (P01116 2-185 isoform P01116-2 G12C): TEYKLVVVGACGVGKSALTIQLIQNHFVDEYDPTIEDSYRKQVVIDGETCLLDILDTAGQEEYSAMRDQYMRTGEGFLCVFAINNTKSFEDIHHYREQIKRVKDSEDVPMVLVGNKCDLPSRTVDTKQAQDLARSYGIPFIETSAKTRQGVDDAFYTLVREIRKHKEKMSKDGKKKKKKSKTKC
Sequence of HIS-KRAS (G12V) (P01116 1-188 isoform P01116-2 G12V): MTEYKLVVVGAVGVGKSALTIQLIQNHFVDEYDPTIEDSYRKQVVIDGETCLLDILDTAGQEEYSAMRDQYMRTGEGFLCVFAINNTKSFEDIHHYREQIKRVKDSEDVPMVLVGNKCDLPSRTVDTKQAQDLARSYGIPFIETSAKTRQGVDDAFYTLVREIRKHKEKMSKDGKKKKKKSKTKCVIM
T2 sequence (P01116 1-169 isoform P01116-2 G12C): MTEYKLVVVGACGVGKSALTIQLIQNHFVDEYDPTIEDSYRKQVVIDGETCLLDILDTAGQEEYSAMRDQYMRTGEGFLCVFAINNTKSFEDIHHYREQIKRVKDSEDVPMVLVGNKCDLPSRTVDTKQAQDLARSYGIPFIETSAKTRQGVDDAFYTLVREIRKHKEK

SMILES | IC50 [1] [nM] | IC50 (HIS-KRAS (G12V)) [nM] | Binding Model [2]
C#Cc1c(F)ccc2cc(O)cc(-c3ncc4c(N5CCCC[C@@H](NC(=O)C=C)C5)nc(OCC56CCCN5CCC6)nc4c3F)c12 [Example 8, N-[(3R)-1-[7-(8-ethynyl-7-fluoro-3-hydroxynaphthalen-1-yl)-8-fluoro-2-(hexahydropyrrolizin-7a-ylmethoxy)pyrido[4,3-d]pyrimidin-4-yl]azepan-3-yl]prop-2-enamide] | 7.11 | 22.9 | Covalent binding
C#Cc1c(F)ccc2cc(O)cc(-c3ncc4c(N5CCCC[C@H](NC(=O)C=C)C5)nc(OCC56CCCN5CCC6)nc4c3F)c12 [Example 9, N-[(3S)-1-[7-(8-ethynyl-7-fluoro-3-hydroxynaphthalen-1-yl)-8-fluoro-2-(hexahydropyrrolizin-7a-ylmethoxy)pyrido[4,3-d]pyrimidin-4-yl]azepan-3-yl]prop-2-enamide] | 6.4 | 3.15 | Covalent binding

— patent US20250145639A1, “MUTANT KRAS MODULATORS AND USES THEREOF” (NEWAVE PHARMACEUTICAL INC., priority 2021, published 2025)
